# Columns and labels:
# RAW cells = assay: Anti-ApoA-I IgG-induced TNF-α release in RAW mouse macrophage cell line; type: cell-based; settings: anti-ApoA-I IgG 100 μg/ml preincubated 2 h with peptide 100 to 0.06 μg/ml; 24 h stimulation; ELISA; n = 3 (Fig 7)
# Procedure: Raw cells were seeded in 96-well plates at 2 × 10^5 cells/well in DMEM culture medium (10% heat-inactivated FCS, 50 μg/ml streptomycin, 50 U/ml penicillin) for 24 h. Anti-Apo-A1 IgG (100 μg/ml) were incubated with peptides across a concentration range from 100 μg/ml to 0.06 μg/ml for 2 h at room temperature prior addition to cells. After 24 h stimulation, mouse TNF-α was quantified in the cell supernatants by ELISA according to manufacturer’s instructions (R&D system, MN).
# Fig 7 Comparing the inhibitory potency of Peptide F and F3L1 on anti-ApoA-I IgG-induced TNF-α. Anti-ApoA-I IgG was incubated with the indicated peptide concentrations (preincubation 2 h at room temperature) prior to addition to cultured RAW cells. Levels of proinflammatory cytokines (TNF-α) were determined after 24 h culture. Mean levels (n = 3) are shown with error bars indicating the range.
# [1] = CD spectroscopy (alpha-helical content); type: physicochemical; settings: 100 μM peptide in water with 1.25% trifluoroethanol, 20°C (Fig 2)
# Procedure: Experiments were carried out in 0.1 cm quartz cell using a Jasco J-710 spectrometer with 100 μM peptide solutions (1.25% trifluoroethanol in water) at 20°C.
# Fig 2 CD spectroscopy of peptide F3L1 indicates increased alpha-helical content. CD spectra of Peptide F and F3L1 were measured at 100μM concentration in water containing 1.25% trifluoroethanol.
# [2] = system: anti-ApoA-I antibodies in plasma samples from three different patients; assay: Competition ELISA with plasma of three individual anti-ApoA-I-positive patients; type: binding, human; settings: preincubated 2 h at room temperature with peptide, n = 3 (Fig 3)
# Procedure: We next performed ELISA assays using plasma samples from three different anti-ApoA-I autoantibody-positive patients from the cohort pre-incubated with Peptide F, a scrambled version of Peptide F (Table 1), or the stapled peptide F3L1 prior to addition to wells coated with ApoA-I (Fig 3).
# Plasma samples were preincubated (2 h, room temperature) with peptides at the indicated concentrations prior to addition to assay wells. Percent maximal ELISA signals were calculated as 100 × ([signal in well]-[mean background signal (uncoated well)])/ ([mean maximal signal (no peptide)]-[mean background signal]). Results are expressed as mean ± SD (n = 3).
# [3] = system: human monocyte-derived macrophages; assay: Anti-ApoA-I IgG-mediated IL-6 and TNF-α release from human monocyte-derived macrophages; type: cell-based; settings: for inhibition of anti-ApoA-I IgG-induced TNF-α and IL-6 release: peptide preincubated with anti-ApoA-I IgG 2 h at room temperature, highest concentration 1 mg/mL (Fig 5, 6)
# Procedure: Human monocytes were isolated from buffy coats from healthy donors at the Geneva University Hospitals Blood Transfusion Center and differentiated into macrophages by 24 h incubation with IFN-γ (500 U/ml) in complete RPMI-1640 culture medium (10% heat-inactivated FCS, 50 μg/ml streptomycin, 50 U/ml penicillin, 2 mM L-glutamine), as previously described. Assays of anti-ApoA-I IgG-mediated release of IL-6 and TNF-α from human monocyte-derived macrophages was carried out as described previously using a previously determined optimal concentration of polyclonal goat anti-ApoA-I IgG (40 μg/ml). Endotoxin contamination in the assay was excluded using the limulus amebocyte lysate Endochrome assay. Where indicated, anti-ApoA-I IgG was pre-incubated with peptide […] (1 mg/mL) for 2 h at room temperature prior addition to the cells. Each experiment was performed on cells from […] different healthy blood donors. […] We next used a Luminex assay to measure the capacity of peptide […] to inhibit endotoxin-free anti-ApoA-I IgG-mediated proinflammatory cytokine release in human monocyte-derived macrophages (Fig 5a and 5b). As expected from previously published work, anti-ApoA-I IgG elicited a significant increase in production of both in IL-6 and TNF-α when compared to control IgG (Ctl IgG; p<0.0001 for both cytokines). […] We were unable to measure the inhibitory activity of intact purified and delipidated ApoA-I in this assay because traces of endotoxin elicit significant levels of background cytokine secretion (NV and SP, unpublished observations).  Fig 5 Peptide […] inhibits anti-ApoA-I IgG-mediated release of proinflammatory cytokines from cultured human monocyte-derived macrophages. Release of proinflammatory cytokines TNF-α (a) IL-6 (b) from human monocyte-derived macrophages induced by endotoxin-free goat polyclonal anti-ApoA-I IgG was determined with or without preincubation (2 h at room temperature) of the anti-ApoA-I IgG with peptide […] (1 mg/mL) and the corresponding scrambled peptide (Scr Pept). […] Anti-ApoA-I IgG was incubated with the indicated […] concentrations (preincubation 2 h at room temperature) prior to addition to cultured human monocyte-derived macrophages. Levels of proinflammatory cytokines were determined after 24 h culture. Experiments were repeated using cells from three different healthy donors, with results expressed as median, interquartile range (IQR) and range.
# [4] = system: anti-ApoA-I antibodies from pooled patient plasma; assay: Competition ELISA: peptides block binding of antibodies from pooled patient plasma to immobilized ApoA-I; design: species or system human; settings: pooled patient plasma preincubated 2 h at room temperature with peptide; wells coated with intact ApoA-I (Fig 1b)
# Procedure: (§1) Fig 1 The anti-ApoA-I autoantibody response is strongly biased towards the C-terminal alpha-helical region. ELISA experiments were carried out using a set of ApoA-I-derived peptides (Table 1). a. Capture ELISA assay to determine the immunoreactivity of plasma pooled from patients known to be positive for anti-ApoA-I autoantibodies against the set of peptides. Specific ELISA signals were calculated as [signal in well]-[mean background signal (uncoated well)]. Results are expressed as mean ± SD (n = 3) b and c. Competition ELISA to determine the capacity of the set of peptides to block binding of anti-ApoA-I antibodies from either pooled patient plasma (b) or goat polyclonal IgG (c) to immobilized ApoA-I. Plasma or antibody was preincubated (2 h, room temperature) with peptides at the indicated concentrations prior to addition to assay wells. Percent maximal ELISA signals were calculated as 100 × ([signal in well]-[mean background signal (uncoated well)])/([mean maximal signal (no peptide)]-[mean background signal]). Results are expressed as mean ± SD (n = 3). […] In contrast, when pre-incubated with goat polyclonal anti-ApoA-I IgG, none of the peptides, including Peptide F, decreased signal inhibition by 15% at the highest concentration (Fig 1c). […]
# [5] = system: goat polyclonal anti-ApoA-I IgG; assay: Competition ELISA: peptides block binding of goat polyclonal IgG to immobilized ApoA-I; settings: goat polyclonal anti-ApoA-I IgG preincubated with peptide; wells coated with ApoA-I (Fig 1c)
# Procedure: as §1
# [6] = system: anti-ApoA-I autoantibodies in pooled patient plasma; assay: Capture ELISA: immunoreactivity of pooled anti-ApoA-I-positive patient plasma to coated peptides; type: binding, human; settings: pooled plasma of anti-ApoA-I-positive patients; peptide as coating antigen; mean ± SD, n = 3 (Fig 1a)
# Procedure: Anti-ApoA-I IgG autoantibodies in plasma were measured as described previously. Briefly, Maxisorp plates (Nunc) were coated with purified and delipidated human ApoA-I, diluted in carbonate buffer pH 9.7 (20 μg/ml; 50 μl/well), for 1 h at 37°C. The same procedure was used for the engineered peptides. After three washes with PBS/ 2% (w/v) BSA (100 μl/well), all wells were blocked for 1 h with PBS/ 2% (w/v) BSA at 37°C. Samples were diluted 1:50 in PBS/ 2% (w/v) BSA and incubated for 60 min at 37°C. Samples at the same dilution were also added to a non-coated well to assess individual non-specific binding. After six further washes, 50 μl/well of alkaline-phosphatase conjugated anti-(human IgG) (Sigma-Aldrich), diluted 1:1000 in PBS/ 2% (w/v) BSA, was incubated for 1 h at 37°C. After six more washes (150 μl/well) with PBS/ 2% (w/v) BSA, the phosphatase substrate p-nitrophenyl phosphate (50μl/well; 1mg/ml; Sigma—Aldrich) dissolved in 4.8% (w/v) diethanolamine (pH 9.8) was added. Each sample was tested in duplicate and A 405nm was determined after 20 min of incubation at 37°C (VERSAMax; MolecularDevices). The corresponding non-specific binding was subtracted from the mean absorbance for each sample. As in previous studies, positive immunoreactivity of human samples to ApoA-I was prospectively defined by an index >37%. This value was also used to define positive immunoreactivity to mimetic peptides, as defined upon receiver operating characteristic (ROC) curve analyses, and shown to provide an identical prevalence of positive immunoreactivity levels 11% […] to native ApoA-1 and 11% (14/132) to F3L1 peptide (data not shown). Repeatability and reproducibility were determined at two levels. At a high level (A 405nm = 1.2, i.e. twice the cut-off value), the intra- and inter-assay coefficients of variation were 10% (n = 10) and 17% (n = 10) respectively. At the cut-off level, the intra- and inter-assay coefficients of variation were 16% (n = 10) and 12% (n = 8) respectively.
# In order to characterize the anti-ApoA-I autoantibody response, we chemically synthesized a panel of peptides corresponding to the different alpha-helical regions in the protein (Table 1). Each of the two longest helical regions, C and D, were synthesized as two separate peptides (C1, C2, D1, D2) whose sequences are located on either side of centrally located proline residues (Pro^121 for Region C, Pro^165 for Region D (Table 1)). The synthetic peptides were then used as coating antigens in a capture ELISA experiment to compare their immunoreactivity against pooled plasma from a subset of patients from our acute chest pain cohort that had previously shown to be positive for anti-ApoA-I autoantibodies (Fig 1a).
# Fig 1 The anti-ApoA-I autoantibody response is strongly biased towards the C-terminal alpha-helical region. ELISA experiments were carried out using a set of ApoA-I-derived peptides (Table 1). a. Capture ELISA assay to determine the immunoreactivity of plasma pooled from patients known to be positive for anti-ApoA-I autoantibodies against the set of peptides. Specific ELISA signals were calculated as [signal in well]-[mean background signal (uncoated well)]. Results are expressed as mean ± SD (n = 3) b and c. Competition ELISA to determine the capacity of the set of peptides to block binding of anti-ApoA-I antibodies from either pooled patient plasma (b) or goat polyclonal IgG (c) to immobilized ApoA-I. Plasma or antibody was preincubated (2 h, room temperature) with peptides at the indicated concentrations prior to addition to assay wells. Percent maximal ELISA signals were calculated as 100 × ([signal in well]-[mean background signal (uncoated well)])/([mean maximal signal (no peptide)]-[mean background signal]). Results are expressed as mean ± SD (n = 3).
# [7] = anti-ApoA-I IgG 40 μg/ml preincubated 2 h at room temperature with peptide 1 mg/mL (342 μM), nine donors, Luminex
maximal inhibition plateau of total anti-ApoA-I signal [4],peptide concentration above which inhibition of ELISA signal is seen [4],decrease of ELISA signal at the highest peptide concentration [5],Substance,inhibitory potency on anti-ApoA-I IgG-induced TNF-α (RAW cells),alpha-helical content by CD [1],inhibition of binding of anti-ApoA-I IgG to immobilized ApoA-I [2],"median IL-6 production [3, 7]","median TNF-α production [3, 7]",inhibition of anti-ApoA-I IgG-induced TNF-α and IL-6 release [3],"cytokine production by peptide compared to control IgG ([3]; peptide without anti-ApoA-I IgG, trend for TNF-α, p = 0.05)",plasma immunoreactivity (specific ELISA signal) to coated peptide [6]
–,–,–,"Ac-GLLPVLESFKVSFLSALEEYTKKLNT-NH2 (also: sidechain bridge or staple (positions not given here)) [Peptide F3L1, stapled version of Peptide F with a Glu-Lys lactam bridge]",clearly a more potent inhibitor than Peptide F,increased alpha-helical content compared to the parent molecule,consistently improved binding inhibition with respect to Peptide F,19.2 pg/mL,48.4 pg/mL,dose-dependent manner,devoid of significant biological activity,–
approximately 50%,above 3 μM,< 15%,"GLLPVLESFKVSFLSALEEYTKKLNT [Peptide F, ApoA-I-derived peptide, residues 220–242, C-terminal alpha-helix]",–,–,–,–,–,comparable to that of F3L1,–,strongest signal

# Source: article PMC4503694, “The Human Autoantibody Response to Apolipoprotein A-I Is Focused on the C-Terminal Helix: A New Rationale for Diagnosis and Treatment of Cardiovascular Disease?” (PLoS ONE, 2015)
